Assays:
Assay type in all cases: cell-based
human TLR8 = target: T1, human TLR8 (Homo sapiens, UniProt Q9NR97); assay: TLR8 inhibition reporter assay (HEK-Blue cells, SEAP reporter, R848 stimulation); conditions: HEK-Blue cells overexpressing human TLR8, SEAP reporter, R848 15.9 μM; read-out: TLR8 IC50
T1 construct: host or cells: HEK-Blue cells
T1 sequence (Q9NR97 27-1041): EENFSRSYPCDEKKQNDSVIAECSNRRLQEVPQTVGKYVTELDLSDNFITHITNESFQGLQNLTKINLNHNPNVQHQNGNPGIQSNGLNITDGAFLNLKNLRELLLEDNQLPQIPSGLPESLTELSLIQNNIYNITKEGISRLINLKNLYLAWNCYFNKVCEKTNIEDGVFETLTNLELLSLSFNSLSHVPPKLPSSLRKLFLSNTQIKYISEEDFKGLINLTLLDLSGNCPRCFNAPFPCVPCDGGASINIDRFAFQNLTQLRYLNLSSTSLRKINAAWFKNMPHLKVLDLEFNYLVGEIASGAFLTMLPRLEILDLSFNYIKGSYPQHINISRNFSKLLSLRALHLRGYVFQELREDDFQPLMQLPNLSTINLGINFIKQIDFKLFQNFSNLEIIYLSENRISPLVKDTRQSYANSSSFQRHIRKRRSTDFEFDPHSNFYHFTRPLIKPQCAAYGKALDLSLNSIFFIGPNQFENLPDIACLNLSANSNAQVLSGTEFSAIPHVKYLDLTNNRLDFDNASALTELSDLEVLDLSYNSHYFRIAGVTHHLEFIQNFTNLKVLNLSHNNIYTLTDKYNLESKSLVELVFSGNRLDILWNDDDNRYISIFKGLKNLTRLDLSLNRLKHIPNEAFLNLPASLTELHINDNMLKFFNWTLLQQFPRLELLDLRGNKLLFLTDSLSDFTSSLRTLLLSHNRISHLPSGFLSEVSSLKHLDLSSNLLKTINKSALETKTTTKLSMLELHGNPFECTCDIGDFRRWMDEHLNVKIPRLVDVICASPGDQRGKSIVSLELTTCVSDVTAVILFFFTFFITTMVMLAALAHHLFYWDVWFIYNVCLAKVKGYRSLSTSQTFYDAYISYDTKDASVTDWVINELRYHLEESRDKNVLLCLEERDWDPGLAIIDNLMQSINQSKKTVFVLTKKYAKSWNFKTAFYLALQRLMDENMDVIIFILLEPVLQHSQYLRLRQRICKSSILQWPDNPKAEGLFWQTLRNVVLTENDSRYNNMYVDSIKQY
In short: (§1)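 Agonists used: gardiquimod 7.5 μM (TLR7), R848 15.9 μM (TLR8), ODN2006 5 nM (TLR9), added after 30 min room-temperature compound pre-treatment (0.05 nM–50 μM) of receptor-overexpressing HEK-Blue cells. SEAP reporter (NF-κB/AP-1 driven) read after 22 h at 37 °C; inhibition scaled between agonist+DMSO and reference-inhibitor wells.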

human TLR9 = target: T2, human TLR9 (Homo sapiens, UniProt Q9NR96); assay: TLR9 inhibition reporter assay (HEK-Blue cells, SEAP reporter, ODN2006 stimulation); conditions: HEK-Blue cells overexpressing human TLR9, SEAP reporter, ODN2006 5 nM
T2 construct: host or cells: HEK-Blue cells
T2 sequence (Q9NR96 26-1032): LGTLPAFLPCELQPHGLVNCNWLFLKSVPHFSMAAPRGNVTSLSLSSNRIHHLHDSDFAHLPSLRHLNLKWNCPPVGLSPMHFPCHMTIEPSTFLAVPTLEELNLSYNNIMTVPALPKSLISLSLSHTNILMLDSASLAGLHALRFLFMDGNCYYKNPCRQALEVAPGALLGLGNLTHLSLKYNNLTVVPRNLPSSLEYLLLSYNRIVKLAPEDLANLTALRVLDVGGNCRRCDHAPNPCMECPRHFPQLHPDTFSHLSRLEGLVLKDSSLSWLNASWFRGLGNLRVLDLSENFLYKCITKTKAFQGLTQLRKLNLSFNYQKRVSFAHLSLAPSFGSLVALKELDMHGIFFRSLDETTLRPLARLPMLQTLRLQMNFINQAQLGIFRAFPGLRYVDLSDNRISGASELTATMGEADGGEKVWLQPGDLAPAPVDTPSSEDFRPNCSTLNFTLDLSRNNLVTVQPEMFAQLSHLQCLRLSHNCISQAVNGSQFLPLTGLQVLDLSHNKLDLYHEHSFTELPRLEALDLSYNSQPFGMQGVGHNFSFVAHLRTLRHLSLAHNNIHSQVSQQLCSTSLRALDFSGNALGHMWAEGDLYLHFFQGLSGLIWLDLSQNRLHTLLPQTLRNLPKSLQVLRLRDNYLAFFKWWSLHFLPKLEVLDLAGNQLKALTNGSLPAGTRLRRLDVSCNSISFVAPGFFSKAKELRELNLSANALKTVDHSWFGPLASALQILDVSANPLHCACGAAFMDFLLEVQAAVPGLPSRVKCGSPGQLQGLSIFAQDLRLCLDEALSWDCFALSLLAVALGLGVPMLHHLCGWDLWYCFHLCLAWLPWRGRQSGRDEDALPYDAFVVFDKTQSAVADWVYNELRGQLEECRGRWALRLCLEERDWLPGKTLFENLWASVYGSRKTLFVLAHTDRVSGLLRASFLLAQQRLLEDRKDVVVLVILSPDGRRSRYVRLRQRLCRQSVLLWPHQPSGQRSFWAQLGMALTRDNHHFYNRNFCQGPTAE
Protocol: TLR7/8/9 Inhibition Reporter Assays
HEK-Blue™-cells (Invivogen) overexpressing human TLR7, TLR8 or TLR9 receptors were used for screening inhibitors of these receptors using an inducible SEAP (secreted embryonic alkaline phosphatase) reporter gene under the control of the IFN-β minimal promoter fused to five NF-κB and AP-1-binding sites. Briefly, cells are seeded into Greiner 384 well plates (15000 cells per well for TLR7, 20,000 for TLR8 and 25,000 for TLR9) and then treated with test compounds in DMSO to yield a final dose response concentration range of 0.05 nM-50 μM. After a 30 minute compound pre-treatment at room temperature, the cells are then stimulated with a TLR7 ligand (gardiquimod at a final concentration of 7.5 μM), TLR8 ligand (R848 at a final concentration of 15.9 μM) or TLR9 ligand (ODN2006 at a final concentration of 5 nM) to activate NF-κB and AP-1 which induce the production of SEAP. After a 22 hour incubation at 37° C., 5% CO2, SEAP levels are determined with the addition of HEK-Blue™ Detection reagent (Invivogen), a cell culture medium that allows for detection of SEAP, according to manufacturer's specifications. The percent inhibition is determined as the % reduction in the HEK-Blue signal present in wells treated with agonist plus DMSO alone compared to wells treated with a known inhibitor.

human TLR7 = target: T3, human TLR7 (Homo sapiens, UniProt Q9NYK1); assay: TLR7 inhibition reporter assay (HEK-Blue cells, SEAP reporter, gardiquimod stimulation); conditions: HEK-Blue cells overexpressing human TLR7, SEAP reporter, gardiquimod 7.5 μM; read-out: TLR7 IC50
T3 construct: host or cells: HEK-Blue cells
T3 sequence (Q9NYK1 27-1049): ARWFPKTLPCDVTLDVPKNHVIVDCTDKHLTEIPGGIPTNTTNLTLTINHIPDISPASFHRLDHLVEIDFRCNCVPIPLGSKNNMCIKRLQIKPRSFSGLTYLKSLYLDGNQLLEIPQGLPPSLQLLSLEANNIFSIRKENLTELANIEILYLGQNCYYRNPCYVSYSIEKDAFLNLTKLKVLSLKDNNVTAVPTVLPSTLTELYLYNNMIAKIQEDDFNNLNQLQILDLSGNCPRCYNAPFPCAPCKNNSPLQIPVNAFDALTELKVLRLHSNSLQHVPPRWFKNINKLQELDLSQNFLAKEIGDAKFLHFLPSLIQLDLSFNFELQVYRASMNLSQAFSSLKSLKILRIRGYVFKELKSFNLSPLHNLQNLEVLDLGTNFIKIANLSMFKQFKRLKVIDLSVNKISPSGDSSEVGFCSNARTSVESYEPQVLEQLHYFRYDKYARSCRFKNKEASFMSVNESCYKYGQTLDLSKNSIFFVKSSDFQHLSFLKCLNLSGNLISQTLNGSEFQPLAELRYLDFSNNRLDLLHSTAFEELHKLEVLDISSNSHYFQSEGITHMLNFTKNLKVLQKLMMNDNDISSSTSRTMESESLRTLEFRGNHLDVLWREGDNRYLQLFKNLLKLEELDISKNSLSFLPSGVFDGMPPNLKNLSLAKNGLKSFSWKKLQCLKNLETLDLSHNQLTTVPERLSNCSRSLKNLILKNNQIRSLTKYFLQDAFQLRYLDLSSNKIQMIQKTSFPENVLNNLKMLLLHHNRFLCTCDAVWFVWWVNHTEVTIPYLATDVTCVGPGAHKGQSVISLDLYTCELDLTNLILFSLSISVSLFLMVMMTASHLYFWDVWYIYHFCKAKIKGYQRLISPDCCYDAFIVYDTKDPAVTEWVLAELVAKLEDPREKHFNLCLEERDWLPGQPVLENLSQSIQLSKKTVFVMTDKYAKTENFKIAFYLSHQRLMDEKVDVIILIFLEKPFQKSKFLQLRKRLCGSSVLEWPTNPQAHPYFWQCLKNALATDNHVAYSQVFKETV
In short: as §1

Row | Compound | IC50 (human TLR8) [nM] | IC50 (human TLR9) [nM] | IC50 (human TLR7) [nM]
1 | CCN(C)C1CCC(c2nc3c(C(C)C)c(-c4cc(OC)c5ncnn5c4)[nH]c3s2)CC1 (single isomer, unassigned) [Example 72, N-ethyl-4-(6-isopropyl-5-(8-methoxy-[1,2,4]triazolo[1,5-a]pyridin-6-yl)-4H-pyrrolo[3,2-d]thiazol-2-yl)-N-methylcyclohexan-1-amine] | 4.75 | 7220 | 1.23
2 | CCN(C)C1CCC(c2nc3c(C(C)C)c(-c4cc(OC)c5ncnn5c4)[nH]c3s2)CC1 (single isomer, unassigned) [Example 73, N-ethyl-4-(6-isopropyl-5-(8-methoxy-[1,2,4]triazolo[1,5-a]pyridin-6-yl)-4H-pyrrolo[3,2-d]thiazol-2-yl)-N-methylcyclohexan-1-amine] | 12.7 | 4280 | 0.96
3 | CNC1CCC(c2nc3c(C(C)C)c(-c4cc(OC)c5ncnn5c4)[nH]c3s2)CC1 (single isomer, unassigned) [Example 74, 4-(6-isopropyl-5-(8-methoxy-[1,2,4]triazolo[1,5-a]pyridin-6-yl)-4H-pyrrolo[3,2-d]thiazol-2-yl)-N-methylcyclohexan-1-amine] | 3.44 | 1910 | 0.71
4 | CNC1CCC(c2nc3c(C(C)C)c(-c4cc(OC)c5ncnn5c4)[nH]c3s2)CC1 (single isomer, unassigned) [Example 75, 4-(6-isopropyl-5-(8-methoxy-[1,2,4]triazolo[1,5-a]pyridin-6-yl)-4H-pyrrolo[3,2-d]thiazol-2-yl)-N-methylcyclohexan-1-amine] | 7.55 | 3390 | 0.89
5 | COc1cc(-c2[nH]c3sc(C4CCC(N5CCC5)CC4)nc3c2C(C)C)cn2ncnc12 (single isomer, unassigned) [Example 76, 2-(4-(azetidin-1-yl)cyclohexyl)-6-isopropyl-5-(8-methoxy-[1,2,4]triazolo[1,5-a]pyridin-6-yl)-4H-pyrrolo[3,2-d]thiazole] | 2.62 | 1450 | 0.9
6 | COc1cc(-c2[nH]c3sc(C4CCC(N5CCC5)CC4)nc3c2C(C)C)cn2ncnc12 (single isomer, unassigned) [Example 77, 2-(4-(azetidin-1-yl)cyclohexyl)-6-isopropyl-5-(8-methoxy-[1,2,4]triazolo[1,5-a]pyridin-6-yl)-4H-pyrrolo[3,2-d]thiazole] | 21.5 | 3270 | 2.03
7 | COc1cc(-c2[nH]c3sc(C4CCC(NC(C)C)CC4)nc3c2C(C)C)cn2ncnc12 (single isomer, unassigned) [Example 78, N-isopropyl-4-(6-isopropyl-5-(8-methoxy-[1,2,4]triazolo[1,5-a]pyridin-6-yl)-4H-pyrrolo[3,2-d]thiazol-2-yl)cyclohexan-1-amine] | 1.64 | 2870 | 0.59
8 | COc1cc(-c2[nH]c3sc(C4CCC(NC(C)C)CC4)nc3c2C(C)C)cn2ncnc12 (single isomer, unassigned) [Example 79, N-isopropyl-4-(6-isopropyl-5-(8-methoxy-[1,2,4]triazolo[1,5-a]pyridin-6-yl)-4H-pyrrolo[3,2-d]thiazol-2-yl)cyclohexan-1-amine] | 9.23 | 4120 | 2.29
9 | COc1cc(-c2[nH]c3sc(C4CCC(N5CCS(=O)(=O)CC5)CC4)nc3c2C(C)C)cn2ncnc12 (single isomer, unassigned) [Example 82, 4-(4-(6-isopropyl-5-(8-methoxy-[1,2,4]triazolo[1,5-a]pyridin-6-yl)-4H-pyrrolo[3,2-d]thiazol-2-yl)cyclohexyl)thiomorpholine 1,1-dioxide] | 43.6 | > 50000 | 4.69

— patent US20230139171A1 (SITA Information Networking Computing UK Limited, priority 2019, published 2023)
